# Laboratory results published in patent US6492367B1, “Sulfamato hydroxamic acid metalloprotease inhibitor” (G. D. Searle & Company, priority 1999, dated 2002).
# Key:
# [1] = tested on: advanced, rapidly progressive, treatment-refractory solid tumor cancers (colorectal, pancreatic, ovarian, prostate); conditions: cited from earlier work
# recombinant human MMP-1 = molecular target: T1, recombinant human MMP-1 (Homo sapiens, UniProt P03956); assay: In vitro metalloprotease inhibition, fluorogenic MCA peptide substrate; conditions: Inhibition Table; room temperature, pH 7.5, 4 μM substrate
# T1 sequence (P03956 100-469): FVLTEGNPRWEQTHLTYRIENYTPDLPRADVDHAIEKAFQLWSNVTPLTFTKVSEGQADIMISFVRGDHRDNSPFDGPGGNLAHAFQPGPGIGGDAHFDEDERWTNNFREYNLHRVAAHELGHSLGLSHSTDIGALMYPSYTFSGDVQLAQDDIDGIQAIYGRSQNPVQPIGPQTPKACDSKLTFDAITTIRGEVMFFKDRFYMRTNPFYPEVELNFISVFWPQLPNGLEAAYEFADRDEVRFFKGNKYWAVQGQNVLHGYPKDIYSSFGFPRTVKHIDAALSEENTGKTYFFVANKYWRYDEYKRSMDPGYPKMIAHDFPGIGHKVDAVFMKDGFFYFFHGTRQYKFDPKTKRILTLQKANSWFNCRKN
# MMP-2 = molecular target: T2, MMP-2 (Homo sapiens, UniProt P08253); assay: as above; conditions: Inhibition Table; room temperature, pH 7.5, 4 μM substrate
# T2 sequence (P08253 110-660): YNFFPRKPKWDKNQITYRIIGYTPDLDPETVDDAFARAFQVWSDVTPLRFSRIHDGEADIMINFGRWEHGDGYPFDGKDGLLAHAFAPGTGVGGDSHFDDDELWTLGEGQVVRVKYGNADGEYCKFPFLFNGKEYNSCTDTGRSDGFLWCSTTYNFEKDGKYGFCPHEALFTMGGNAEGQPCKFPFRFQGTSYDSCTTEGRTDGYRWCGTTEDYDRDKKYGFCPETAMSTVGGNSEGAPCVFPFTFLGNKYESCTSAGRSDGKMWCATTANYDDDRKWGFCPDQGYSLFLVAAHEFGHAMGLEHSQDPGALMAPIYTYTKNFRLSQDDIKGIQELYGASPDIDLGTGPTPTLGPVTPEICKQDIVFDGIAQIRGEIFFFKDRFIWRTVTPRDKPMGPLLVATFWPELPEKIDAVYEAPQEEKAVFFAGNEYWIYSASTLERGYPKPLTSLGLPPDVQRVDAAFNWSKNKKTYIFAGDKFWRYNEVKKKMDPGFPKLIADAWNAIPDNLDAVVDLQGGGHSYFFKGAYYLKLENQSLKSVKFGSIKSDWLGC
# recombinant human MMP-13 = recombinant human MMP-13 (Homo sapiens, UniProt P45452); assay: as above; assay type: biochemical; conditions: Inhibition Table; room temperature, pH 7.5, 4 μM substrate
# Procedure: The compounds prepared in the manner described in the Examples above were assayed for activity by an in vitro assay. Following the procedures of Knight et al., FEDS Lett. 296(3):263 (1992).
# More specifically, recombinant human MMP-13 and MMP-1 enzymes were prepared in laboratories of the assignee following usual laboratory procedures. MMP-13 from a full length cDNA clone was expressed as a proenzyme using a baculovirus as discussed in V.A. Luckow, insect Cell Expression Technology, pages 183-218, in Protein Engineering: Principles and Practice, J. L. Cleland et al eds., Wiley-Liss, Inc., (1996). […]
# In the absence of inhibitor activity, a fluorogenic peptide was cleaved at the gly-leu peptide bond, separating the highly fluorogenic peptide from a 2,4-dinitrophenyl quencher, resulting in an increase of fluorescence intensity (excitation at 328 nm/emission at 415 nm). Inhibition was measured as a reduction in fluorescent intensity as a function of inhibitor concentration, using a Perkin Elmer L550 plate reader. The IC50 values were calculated from those values. […]
ED50 MMP-1 (recombinant human MMP-1),ED50 MMP-2 (MMP-2),ED50 MMP-13 (recombinant human MMP-13),Compound,most common drug-related toxicity ([1]; Phase I/II clinical trials),"cancer-specific antigens used as surrogate markers for biological activity ([1]; Phase I/II studies, patients with advanced solid tumor cancers)"
–,–,–,"CNC(=O)[C@@H](NC(=O)[C@H](CC(C)C)[C@H](O)C(=O)NO)C(C)(C)C [marimastat, Marimastat]",musculoskeletal pain and stiffness,dose-related reduction in the rise of cancer-specific antigens
"<10,000 nM","<10,000 nM","<10,000 nM","4-[[4-[[(3R,5R)-rel-3,5-Dimethyl-1-piperidinyl]carbonyl]-1-piperidinyl]sulfonyl]tetrahydro-N-hydroxy-2H-pyran-4-carboxamide and 4-[[4-[[(3R,5S)-rel-3,5-dimethyl-1-piperidinyl]carbonyl]-1-piperidinyl]sulfonyl]tetrahydro-N-hydroxy-2H-pyran-4-carboxamide [Example 49]",–,–
